Experiment [1] concerns MDAMB231 X4 cells. The experiment in a line: Host-guest dependent cell functionalization, confocal microscopy and flow cytometry. It is filed as cell-based, human. Particulars: peptide 10 μM, polymer 10 μM β-CD / 1 μM polymer, 1 h each at 0 °C; Fig. 3a. Here is the method:
The receptor-mediated functionalization of cells was examined by confocal microscopy and flow cytometry (see also ‘Ac-TZ14011-Ad induced cell functionalization analyzed by flow cytometry’). For Confocal microscopy MDAMB231 × 4 cells (80,000 per well) were incubated with either Ac-TZ14011 (10 μM), Ac-TZ14011-Ad (10 μM), or none, for 1 h at 0 °C in 1 mL DMEM. […] Thereafter, the cells were washed twice with PBS and confocal images were acquired. All experiments were performed in 6-fold and for each condition per experiment at least 10 cells were included in the study. The Cy5 signal present on the cell in each sample was quantified to analyze differences between the amount of binding of the polymers to the cells when either, no peptide, Ac-TZ14011, or Ac-TZ14011-Ad was present. For normalization all results were divided by the average fluorescence value obtained when just the polymer was added. The significance of the obtained differences was determined by student T-test (two tailed, unpaired).
Besides examining the receptor-mediated functionalization of cells by confocal microscopy (see ‘Ac-TZ14011-Ad induced cell functionalization analyzed by confocal microscopy’) the functionalization was also examined by flow cytometry to quantify the rate of functionalization. […] For data normalization, all results were divided by the average fluorescence value obtained when only the polymer was added. […]
A general note: In flow cytometry, cells or beads pass a laser one at a time.

Experiment [2] has as its target T1, chemokine receptor 4 (CXCR4) (Homo sapiens, UniProt P61073).
T1 construct: expressed in transfected cells; host or cells: MDAMB231 X4 (human MDA-MB-231 breast cancer cells, provided by Dr. Gary Luker)
Nature of the experiment: Flow cytometry competition binding on viable CXCR4 expressing cells (receptor affinity). To be noted: competition with Ac-TZ14011-MSAP (250 nM), 0.5 – 15,000 nM in PBS, MDAMB231 X4 cells, 1 h on ice, n = 2, One site-Fit Ki. Here is the method:
Human MDAMB231 cells, transfected with human CXCR4 conjugated GFP (MDAMB231 X4), were kindly provided by Dr. Gary Luker (Center for Molecular Imaging, University of Michigan, USA).5 Native MDAMB231 cells with basal CXCR4 expression were used as control.6 Cells we re maintained in Dulbecco’s minimum essential medium (DMEM) enriched with 10% fetal bovine serum and 5 mL Penicillin/Streptomycin (1,000 units/mL Penicillin; 1,000 μg/mL Streptomycin) (all Life Technologies Inc.). Cell lines were cultured and maintained under standard conditions […]
One day prior the experiment, cells were trypsinized, seeded onto culture dishes with glass insert (ø35mm glass bottom dishes No. 15, poly-d-lysine coated, γ-Irradiated, MatTek corporation) and incubated overnight in 2 mL DMEM. […] The intrinsic GFP signal in the MDAMB231 X4 cells was measured with excitation at 488 nm and emission was collected at 500-525 nm.
Cy3 fluorescence was measured with excitation at 514 nm, emission was collected at 550-5 70 nm. Cy5 fluorescence was measured with excitation at 633 nm, emission was collected at 650-700 nm. Any Hoechst 33342 fluorescence was measured using 405 nm excitation and emission was collected at 420-470 nm. Images and signal quantifications were obtained using Leica Application Suite software, by applying the polygon function and calculating the average gray value/m2 for each cell. […]

Positions of bridges follow the written chain, without caps; N, C: chain ends. Non-standard residues stand in square brackets, D forms with d. Residues, ends and D or L forms follow the SMILES beside them. *: point of attachment. Adamantane1carbonyl = O=C(C12CC3CC(CC(C3)C1)C2)*; 2Nal = N[C@@H](Cc1ccc2ccccc2c1)C(=O)O; Cit = NC(=O)NCCC[C@H](N)C(=O)O

T1 sequence (P61073 whole entry): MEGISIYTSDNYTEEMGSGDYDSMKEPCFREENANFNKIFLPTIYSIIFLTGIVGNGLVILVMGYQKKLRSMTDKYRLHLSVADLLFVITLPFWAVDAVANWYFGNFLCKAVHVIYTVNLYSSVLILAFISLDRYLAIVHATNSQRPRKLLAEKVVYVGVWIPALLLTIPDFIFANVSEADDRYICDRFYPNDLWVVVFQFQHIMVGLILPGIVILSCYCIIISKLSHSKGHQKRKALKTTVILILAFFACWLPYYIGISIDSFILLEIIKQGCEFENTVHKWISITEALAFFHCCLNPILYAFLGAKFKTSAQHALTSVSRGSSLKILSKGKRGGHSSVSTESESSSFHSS

A word on the Kd: it is the concentration at which binding is half-saturated. Consider `CC(=O)N[C@@H](CCCNC(=N)N)C(=O)N[C@@H](CCCNC(=N)N)C(=O)N[C@@H](Cc1ccc2ccccc2c1)C(=O)N[C@H]1CSSC[C@@H](C(=O)N[C@@H](CCCNC(=N)N)C(N)=O)NC(=O)[C@H](CCCNC(N)=O)NC(=O)[C@H](CCCNC(=N)N)NC(=O)[C@H](Cc2ccc(O)cc2)NC(=O)[C@@H]2CCCN2C(=O)[C@@H](CCCCNC(=O)C23CC4CC(CC(C4)C2)C3)NC(=O)[C@H](CCCNC(=N)N)NC(=O)[C@H](CCCNC(N)=O)NC(=O)[C@H](Cc2ccc(O)cc2)NC1=O` [Ac-TZ14011-Ad] (Ac-RR[2Nal]CY[Cit]R[dK](Adamantane1carbonyl)PYR[Cit]CR-NH2; disulfide 4-13), for which, in experiment [1], the “effect of pre-targeting peptide on Cy5_0.5CD10PIBMA39 binding” value is “further enhances this effect”. The compound further gave a Kd in experiment [2] of 56 nM.

Values taken from paper PMC5216351, “Obtaining control of cell surface functionalizations via Pre-targeting and Supramolecular host guest interactions” (Scientific Reports, 2017).
